Entries after “also recorded” stand apart in the source; their conditions may differ. Read-outs that look alike come from different tables or passages of the source.
Key:
[1] = test system: cellular microtubules; conditions: read-out: Cellular microtubule depolymerization EC50; lead compounds; cited from earlier work
[2] = test system: tubulin; test: Inhibition of [3H]colchicine binding to tubulin
[3] = test system: tubulin; conditions: lead compounds, cited from earlier work
[4] = test system: MDA-MB-435; test: Antiproliferative effects in MDA-MB-435; format: cell-based, human; conditions: 5-methyl vs 5-desmethyl compound
[5] = test system: cellular microtubules; test: Cellular microtubule depolymerization; format: cell-based; conditions: 5-methyl vs 5-desmethyl compound
[6] = test system: tubulin; test: Inhibition of tubulin assembly; format: biochemical
[7] = test system: NCI 60 cell line panel; test: NCI-60 panel, overall; format: cell-based; conditions: Homo sapiens, read-out: GI50 against most/many tumor cell lines
[8] = Animal weight and MTD in xenograft study
[9] = test system: MCF-7 TUBB3 (βIII-tubulin overexpressing) tumors; test: MCF-7 TUBB3 orthotopic xenograft; format: in vivo, mouse; conditions: athymic female mice; 9 at 30 mg/kg two times weekly, paclitaxel 10 mg/kg/week

**Q.** What does the source list for `COc1ccc(/C=C\c2cc(OC)c(OC)c(OC)c2)cc1O` [CA-4, combretastatin A-4]?
**A.** EC50 [1]: 9.8 nM; Inhibition of colchicine binding, % inhibition ± SD ([2]; 0.5 μM inhibitor): 84 ± 3%; Inhibition of colchicine binding, % inhibition ± SD ([3]; 0.5 μM inhibitor): 84 ± 3%

**Q.** Which results are given for `COc1ccc(Nc2nc(C)nc3cc[nH]c23)cc1` [Compound 1]?
**A.** EC50 [1]: > 10000 nM; Inhibition of colchicine binding, % inhibition ± SD ([3]; 5 μM inhibitor): 0%

**Q.** With `COc1ccc(N(C)c2nc(C)nc3cc[nH]c23)cc1` [Compound 2] as the compound, how does the EC50 [1] read?
**A.** Its EC50 is 1200 nM.

**Q.** For `COc1ccc(N(C)c2nc(C)nc3ccn(C)c23)cc1` [Compound 3], which “Fold more potent in antiproliferative effects than 5-desmethyl 2” value [4] is on record?
**A.** Its value is 22 fold.

**Q.** And the EC50 [1]?
**A.** The EC50 was 7.4 nM.

**Q.** And the “Fold more potent in cellular microtubule depolymerization than 5-desmethyl 2” value [5]?
**A.** Its value is 160 fold.

**Q.** Which “Fold more potent in inhibiting tubulin assembly than 5-desmethyl compound” value ([6]; 5 vs 4, 7 vs 6) does the source give for `COc1ccc(N(C)c2nc(C)nc3c(Cc4ccccc4)cn(C)c23)cc1` [Compound 5] here?
**A.** Its value is 43 fold.

**Q.** Which results are given for `COc1ccc(N(C)c2nc(Cl)nc3cnn(C)c23)cc1` [Compound 9]?
**A.** GI50 [7]: ≤ 10 nM; Animal weight change ([8]; percent weight change at day 41 over starting weight): no significant weight loss; Primary tumor growth / tumor volume [9]: decreased primary tumor growth

**Q.** Which “Inhibition of tubulin assembly, in words” value [6] does the source give for `COc1ccc(Nc2nc(Cl)nc3cnn(C)c23)cc1` [Compound 10] here?
**A.** The value was “did not inhibit tubulin assembly; also recorded: no effect”.

**Q.** And the IC50 ([6]; read-out: Inhibition of tubulin assembly IC50 ± SD)?
**A.** Its IC50 is > 20 µM.

**Q.** And the “Inhibition of [3H]colchicine binding, in words” value [2]?
**A.** Its value is “completely inactive”.

**Q.** With `CSc1ccc(N(C)c2nc(Cl)nc3cnn(C)c23)cc1` [Compound 15] as the compound, how does the “Inhibition of [3H]colchicine binding, in words” value [2] read?
**A.** The value was “equipotent to 9”.

**Q.** Which “Maximally tolerated dose (MTD)” value ([8]; mice) does the source give for `CC(=O)O[C@H]1C(=O)[C@@]2(C)[C@H]([C@H](OC(=O)c3ccccc3)[C@]3(O)C[C@H](OC(=O)[C@H](O)[C@@H](NC(=O)c4ccccc4)c4ccccc4)C(C)=C1C3(C)C)[C@]1(OC(C)=O)CO[C@@H]1C[C@@H]2O` [Paclitaxel, paclitaxel] here?
**A.** The value was 10 mg/kg/week.
